Measured values taken from patent US6509344B1, “Indenoisoquinolines as antineoplastic agents” (The United States of America as represented by the …, priority 1998, dated 2003).
Like-named read-outs stand apart in the source and are kept apart here.

Key:
[1] = test system: HOP-62; experiment: NCI human cancer cell line screen (COMPARE screening), Lung HOP-62; format: cell-based
From the text: (§1) Considering the diversity of cancer in terms of cell type, morphology, growth rate and other cellular characteristics, the U.S. National Cancer Institute (NCI) has developed a “disease-oriented” approach to anticancer activity screening (M. R. Boyd, in “Principle of Practice of Oncology” […]. Rosenberg (Eds.) Vol. 3, PPO Update, No. 10, 1989). This in vitro prescreening system is based on the measurement of anticancer cytotoxicity against human cancer cell line panels consisting of approximately 60 cell lines of major human cancers (including leukemia and slower growing tumor cells such as lung, colon, breast, skin, kidney, etc.) and is referred hereinafter as “COMPARE” screening. An important advantage of the new in vitro screening panels is the opportunity to facilitate identification of compounds that are selectively more cytotoxic to cells of certain types of cancers, thus increasing the ability to select compounds for further study with respect to specific diseases. The indenoisoquinolines were examined for antiproliferative activity against the human cancer cell lines in the National Cancer Institute screen (COMPARE screening), in which the activity of each compound was evaluated with approximately […] different cancer cell lines of diverse tumor origins.

[2] = test system: HCT-116; experiment: NCI human cancer cell line screen (COMPARE screening), Colon HCT-116; format: cell-based
From the text: as §1

[3] = test system: SF-539; experiment: NCI human cancer cell line screen (COMPARE screening), CNS SF-539; format: cell-based
From the text: as §1

[4] = test system: UACC-62; experiment: NCI human cancer cell line screen (COMPARE screening), Melanoma UACC-62; format: cell-based
From the text: as §1

[5] = test system: OVCAR-3; experiment: NCI human cancer cell line screen (COMPARE screening), Ovarian OVCAR-3; format: cell-based
From the text: as §1

[6] = test system: SN12C; experiment: NCI human cancer cell line screen (COMPARE screening), Renal SN12C; format: cell-based
From the text: as §1

[7] = test system: DU-145; experiment: NCI human cancer cell line screen (COMPARE screening), Prostate DU-145; format: cell-based
From the text: as §1

[8] = test system: MDA-MB-435; experiment: NCI human cancer cell line screen (COMPARE screening), Breast MDA-MB-435; format: cell-based
From the text: as §1

[9] = test system: approximately 55 different cancer cell lines of diverse tumor origins; experiment: NCI screen mean graph midpoint over all cell lines tested; format: cell-based, human; conditions: for IC50: average GI50 for all cell lines tested (approximately 55), values outside test range taken as 10^-8 or 10^-4 molar, read-out: MGM (mean graph midpoint)
From the text: as §1

[10] = target: T1, topoisomerase I (Homo sapiens, UniProt P11387); experiment: Topoisomerase I-mediated DNA cleavage assay (3'-end-labeled 161 bp pBluescript SK(-) fragment); format: biochemical; conditions: for Top 1 Cleavage: relative to the activity of 1 μM camptothecin
T1 sequence (P11387 1-765): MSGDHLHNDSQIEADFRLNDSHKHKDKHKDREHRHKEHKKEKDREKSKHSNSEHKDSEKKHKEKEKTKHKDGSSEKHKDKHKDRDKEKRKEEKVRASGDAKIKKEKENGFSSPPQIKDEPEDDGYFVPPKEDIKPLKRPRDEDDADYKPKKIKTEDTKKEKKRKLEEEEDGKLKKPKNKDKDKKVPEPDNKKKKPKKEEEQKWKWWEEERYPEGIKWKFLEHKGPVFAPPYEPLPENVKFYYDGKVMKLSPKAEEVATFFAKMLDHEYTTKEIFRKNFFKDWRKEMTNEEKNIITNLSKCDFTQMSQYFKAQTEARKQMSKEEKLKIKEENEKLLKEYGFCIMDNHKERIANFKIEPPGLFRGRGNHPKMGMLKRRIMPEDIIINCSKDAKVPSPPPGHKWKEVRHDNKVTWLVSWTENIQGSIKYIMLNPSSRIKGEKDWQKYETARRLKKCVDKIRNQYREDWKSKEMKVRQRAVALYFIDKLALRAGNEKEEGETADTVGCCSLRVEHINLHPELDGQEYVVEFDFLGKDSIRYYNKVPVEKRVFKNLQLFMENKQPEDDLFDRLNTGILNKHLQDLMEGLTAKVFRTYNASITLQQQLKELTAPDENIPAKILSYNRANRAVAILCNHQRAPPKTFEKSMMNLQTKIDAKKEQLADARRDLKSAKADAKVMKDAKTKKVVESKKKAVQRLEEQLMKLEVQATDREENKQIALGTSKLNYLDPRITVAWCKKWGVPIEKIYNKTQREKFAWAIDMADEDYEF
Procedure: Topoisomerase I-Mediated DNA Cleavage Reactions Using 3′-End-labeled 161 BP Plasmid DNA
The 161 bp fragment from pBluescript SK(−) phagemid DNA (Stratagene, La Jolla, Calif.) was cleaved with the restriction endonuclease Pvu II and Hind III (New England Biolabs, Beverly, Mass.) in supplied NE buffer 2 (10 μL reactions) for 1 h at 37° C., separated by electrophoresis in a 1% agarose gel made in 1×TBE buffer. The 161 bp fragment was eluted from the gel slice (centrilutor by Amicon) and concentrated in a centricon 50 centrifugal concentrator (Amicon, Beverly, Mass.). Approximately 200 ng of the fragment was 3′-end-labeled at the Hind III site by fill-in reaction with [alpha-^32P]-dCTP and 0.5 mM dATP, dGTP, and dTTP, in React 2 buffer (50 mM Tris-HCl, pH 8.0, […], 50 mM NaCl) with 0.5 units of DNA polymerase I (Klenow fragment). Labeling reactions were followed by phenol-chloroform extraction and ethanol precipitation. The resulting 161 bp 3′-endlabeled DNA fragment was resuspended in water. Aliquots (approximately 50,000 dpm/reaction) were incubated with topoisomerase I at 30° C. for 15 min in the presence of the indicated drug. Reactions were terminated by adding 0.5% SDS. After ethanol precipitation, the samples were resuspended in loading buffer (80% formamide, 10 mM sodium hydroxide, 1 mM sodium EDTA, 0.1% xylene cyanol, and 0.1% bromophenol blue, pH 8.0), and separated in a denaturing gel (16% polyacrylamide, 7 M urea) run at 51° C. The gel was dried and visualized by using a Phosphoimager and ImageQuant software (Molecular Dynamics, Sunnyvale, Calif.).

[11] = test system: human topoisomerase II; experiment: Topoisomerase II-mediated DNA cleavage assay (5'-end-labeled human c-myc DNA); format: biochemical
[12] = Homo sapiens, HOP-62, concentration causing 50% growth inhibition, read-out: Cytotoxicity (G150 in μM) Lung HOP-62
[13] = Homo sapiens, HCT-116, concentration causing 50% growth inhibition, read-out: Cytotoxicity (G150 in μM) Colon HCT-116
[14] = Homo sapiens, SF-539, concentration causing 50% growth inhibition, read-out: Cytotoxicity (G150 in μM) CNS SF-539
[15] = Homo sapiens, UACC-62, concentration causing 50% growth inhibition, read-out: Cytotoxicity (G150 in μM) Melanoma UACC-62
[16] = Homo sapiens, OVCAR-3, concentration causing 50% growth inhibition, read-out: Cytotoxicity (G150 in μM) Ovarian OVCAR-3
[17] = Homo sapiens, SN12C, concentration causing 50% growth inhibition, read-out: Cytotoxicity (G150 in μM) Renal SN12C
[18] = Homo sapiens, DU-145, concentration causing 50% growth inhibition, read-out: Cytotoxicity (G150 in μM) Prostate DU-145
[19] = Homo sapiens, MDA-MB-435, concentration causing 50% growth inhibition, read-out: Cytotoxicity (G150 in μM) Breast MDA-MB-435

Compound	IC50 [1] [µM]	IC50 [2] [µM]	IC50 [4] [µM]	IC50 [5] [µM]	IC50 [7] [µM]	IC50 [8] [µM]	cytotoxicity (MGM) relative to lead compound 1 [9]	IC50 [9] [µM]	Top 1 Cleavage [10]	induction of topoisomerase II cleavage complexes [11]	IC50 [1, 12] [µM]	IC50 [2, 13] [µM]	IC50 [3, 14] [µM]	IC50 [4, 15] [µM]	IC50 [5, 16] [µM]	IC50 [6, 17] [µM]	IC50 [7, 18] [µM]	IC50 [8, 19] [µM]	IC50 ([9]; Homo sapiens) [µM]	further results
COc1cc2c(cc1OC)[C@H]1C(=O)c3cc4c(cc3[C@H]1N(C)C2=O)OCO4 (relative stereo) [Compound 20, cis-5,6,12,13-Tetrahydro-2,3-dimethoxy-6-methyl-5,11-dioxo-8,9(methylenedioxy)-(11H)indeno[1,2-c]isoquinoline]	9.4	2	0.42	6.7	4.1	17	lower MGM than the lead compound 1	5	± (those compounds having less than 20% of the activity of 1 μM camptothecin)	no effect										IC50 [3]: 3.1 µM; IC50 [6]: 2.1 µM; activity in the topoisomerase I cleavage assay (in words) [10]: weak
CCN1C(=O)c2cc(OC)c(OC)cc2[C@H]2C(=O)c3cc4c(cc3[C@H]21)OCO4 (relative stereo) [Compound 21, cis-6-Ethyl-5,6,12,13-tetrahydro-2,3-dimethoxy-5,11-dioxo-8,9-(methylene-dioxy)-11H-indeno[1,2-c]isoquinoline]	0.29	0.29	0.18	0.44	0.42	0.45	lower MGM than the lead compound 1	0.81	± (those compounds having less than 20% of the activity of 1 μM camptothecin)	no effect										
C=CCN1C(=O)c2cc(OC)c(OC)cc2[C@H]2C(=O)c3cc4c(cc3[C@H]21)OCO4 (relative stereo) [Compound 22, cis-6-Allyl-5,6,12,13-tetrahydro-2,3-dimethoxy-5,11-dioxo-8,9-(methylenedioxy)-(11H)indeno[1,2-c]isoquinoline]	0.36	0.34	0.38	1.7	0.77	1.4	lower MGM than the lead compound 1	0.98	0	no effect										
O=C1c2ccccc2-c2c1c1ccccc1c(=O)n2CCCCO [Compound 7, 5,6-Dihydro-6-(4-hydroxy-1-butyl)-5,11-diketo-11H-indeno[1,2-c]isoquinoline]									+ (those compounds having between 20% and 50% of the activity of 1 μM camptothecin)	weak topoisomerase II activity	13	3.2	4.6	4.4	74	7.4	> 100	> 100	16	cytotoxicity (MGM) relative to lead compound 1 ([9]; comparison in words): lower MGM than the lead compound 1
O=C1c2ccccc2-c2c1c1ccccc1c(=O)n2CCCCCO [Compound 8, 5,6-Dihydroxy-6-(5-hydroxy-1-pentyl)-5,11-diketo-11H-indeno[1,2-c]isoquinoline]	4.4	3.9	14.3	93	3.4	41	lower MGM than the lead compound 1	14	+ (those compounds having between 20% and 50% of the activity of 1 μM camptothecin)	weak topoisomerase II activity										
COc1ccc(Cn2c3c(c4cc(OC)c(OC)cc4c2=O)C(=O)c2cc4c(cc2-3)OCO4)cc1 [Compound 13f, 6-(p-Anisyl)-2,3-dimethoxy-5,6-dihydro-5,11-diketo-8,9-methylenedioxy-11H-indeno[1,2-c]isoquinoline]									0		20	> 100	> 100	> 100	> 100	> 100	76	> 100	70	
Cn1c2c(c3ccccc3c1=O)C(=O)c1cc(OCc3ccccc3)c(OCc3ccccc3)cc1-2 [Compound 13g, 8,9-Dibenzyloxy-5,6-dihydro-5,11-diketo-6-methyl-11H-indeno[1,2-c]isoquinoline]									0		72	> 100	> 100	93	> 100	88	> 100	> 100	82	
COc1cc2c3c(n(C)c(=O)c2cc1OC)-c1cc(OCc2ccccc2)c(OCc2ccccc2)cc1C3=O [Compound 13h, 8,9-Dibenzyloxy-5,6-dihydro-5,11-diketo-6-methyl-2,3-dimethoxy-11H-indeno[1,2-c]isoquinoline]									0		46	80	39	> 100	58	> 100	> 100	> 100	72	
COc1cc2c3c(n(C)c(=O)c2cc1OC)-c1cc(OC)c(OC)c(OC)c1C3=O [Compound 13i, 5,6-Dihydro-5,11-diketo-6methyl-2,3,8,9,10-pentamethoxy-11H-indeno[1,c]isoquinoline]	> 100	> 100	55	> 100	> 100	> 100		95	0											IC50 [3]: > 100 µM; IC50 [6]: > 100 µM
